Measurements published in patent US7521480B2, “Aryl ureido benzoic acid derivatives and their use” (Neurosearch, priority 2002, dated 2009).

Tests used:
[1] = biological target: T1, GluR6 receptor (Homo sapiens, UniProt Q13002); test: GluR6 functional assay: inhibition of domoate-induced increase in Cai (FLIPR); format: cell-based; conditions: HEK 293 cells stably expressing GluR6; domoate 0.2 μM; Fluo-4 FLIPR, 25° C.
T1 construct: expressed in transfected cells; host or cells: HEK 293
Excerpt: (§1) This example describes cell-based assays carried out using human embryonic HEK 293 cells stably expressing GluR5 and GluR6 receptors, respectively, in which assays the inhibition of domoate-induced increase in Cai is used as a measure for glutamate antagonist activity of test substances.
(§2) The intracellular free calcium concentration (Cai) is regulating the majority of metabolic processes in mammalian cells. Elevations of Cai in excitable tissues such as neurones are seen after specific activation of receptor operated calcium channels (e.g. glutamate, receptors), or after depolarisation and opening of voltage operated calcium channels. Some neurotransmitters and neuro-modulator increase Cai by activating G-protein coupled ionophors or by release of Cai from intracellular stores via the second messenger IP3.
(§3) Cai is determined by fluorometric methods in a Fluorescent Image Plate Reader (FLIPR). Calcium-chelating fluorochromes (tetracarboxylic acids) are loaded into the cells as acetoxymethyl esters and subsequently released by an unspecific intracellular esterase. The free acids, which are impermeable to the cell membrane, are maintained in the cell for hours. The fluorescence spectrum (either EXmax, EMmax or both) is changed by the binding of calcium, and the fluorescence is directly proportional to the Cai.
The present method uses the fluorochromes Fluo-3 or Fluo-4 as the calcium-chelator. Fluo-3/Fluo-4 is virtually non-fluorescent without calcium, but the calcium-Fluo-3/Fluo-4 complexes show a bright fluorescence (EMmax=526 nm) after excitation around 500 nm (EXmax=505 nm). This fluorescence spectrum is similar to the spectrum of fluorescein. Since excitation and emission is in the visible light region of the spectrum, standard equipment without quarts optics may be used. […]
(§4) After the loading period, the loading media is aspirated and the cells are washed twice with 100 μl Na^+ free Ringer (NN: 10 mM HEPES, 140 mM Choline chloride, 5 mM KCl, 1 mM MgCl2, 10 mM CaCl2, pH 7.4) to remove extracellular dye. 100 μl NN is added to each well, and the fluorescence is measured in the FLIPR.
(§5) Cells are pre-incubated for 1.5 min with test compound (50 μl) before addition of domoate (50 μl) to a final concentration of 2 μM when determined on GluR5 and 0.2 μM when determined on GluR6. […]
• Temperature: 25° C. • Preincubation: 50 μl test solution at a rate of 30 μl/sec and starting height of 100 μl • […] phase: 50 μl domoate solution (8 μM) at a rate of 35 μl/sec and starting height of 150 μl • Reading intervals: preincubation—10 sec×7 and 3 sec×3 antagonist phase—3 sec×17 and 10 sec×12 […]

[2] = biological target: T2, GluR5 receptor (Homo sapiens, UniProt P39086); test: GluR5 functional assay: inhibition of domoate-induced increase in Cai (FLIPR); format: cell-based; conditions: HEK 293 cells stably expressing GluR5; domoate 2 μM; Fluo-4 FLIPR, 25° C.
T2 construct: expressed in transfected cells; host or cells: HEK 293
Excerpt: as §1, §2, §3
The present method uses the fluorochromes Fluo-3 or Fluo-4 as the calcium-chelator. Fluo-3/Fluo-4 is virtually non-fluorescent without calcium, but the calcium-Fluo-3/Fluo-4 complexes show a bright fluorescence (EMmax=526 nm) after excitation around 500 nm (EXmax=505 nm). This fluorescence spectrum is similar to the spectrum of fluorescein. Since excitation and emission is in the visible light region of the spectrum, standard equipment without quarts optics may be used.
The kainate subtype of ionotropic glutamate receptors exists of two high affinity subunits—KA1 and KA2, and three low affinity subunits—GluR5-7. The ion channel in the GluR5 receptor subtype can be made permeable for calcium by substitution of an arginine (R) to a glutamine (Q) in the pore region. The stably expressed human GluR5 receptors used here are calcium permeable (Q), which makes them ideal for fluorescence measurements. […]
as §4, §5

T1 sequence (Q13002 32-908): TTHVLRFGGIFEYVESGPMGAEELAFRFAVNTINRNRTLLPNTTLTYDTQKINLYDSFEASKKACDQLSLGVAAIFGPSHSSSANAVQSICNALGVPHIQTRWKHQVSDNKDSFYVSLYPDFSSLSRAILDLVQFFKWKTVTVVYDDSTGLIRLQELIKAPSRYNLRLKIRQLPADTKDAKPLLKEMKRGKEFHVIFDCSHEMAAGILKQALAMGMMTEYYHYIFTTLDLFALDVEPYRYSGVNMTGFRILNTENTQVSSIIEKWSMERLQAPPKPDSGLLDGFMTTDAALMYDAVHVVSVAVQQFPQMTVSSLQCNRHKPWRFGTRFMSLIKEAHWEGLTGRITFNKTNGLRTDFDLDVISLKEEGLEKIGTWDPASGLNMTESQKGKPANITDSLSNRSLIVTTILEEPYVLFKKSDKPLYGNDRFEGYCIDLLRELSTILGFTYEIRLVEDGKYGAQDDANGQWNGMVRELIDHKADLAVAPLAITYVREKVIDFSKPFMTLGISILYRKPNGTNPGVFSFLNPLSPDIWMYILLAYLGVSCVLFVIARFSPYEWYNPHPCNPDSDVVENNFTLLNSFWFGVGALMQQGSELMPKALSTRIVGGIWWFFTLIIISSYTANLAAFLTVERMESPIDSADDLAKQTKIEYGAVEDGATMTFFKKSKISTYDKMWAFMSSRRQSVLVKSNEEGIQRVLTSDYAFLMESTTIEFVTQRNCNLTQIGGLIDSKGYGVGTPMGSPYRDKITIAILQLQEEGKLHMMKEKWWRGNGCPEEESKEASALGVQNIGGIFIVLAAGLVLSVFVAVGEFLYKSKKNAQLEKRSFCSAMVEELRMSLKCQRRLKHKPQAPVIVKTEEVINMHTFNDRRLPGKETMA
T2 sequence (P39086 31-918): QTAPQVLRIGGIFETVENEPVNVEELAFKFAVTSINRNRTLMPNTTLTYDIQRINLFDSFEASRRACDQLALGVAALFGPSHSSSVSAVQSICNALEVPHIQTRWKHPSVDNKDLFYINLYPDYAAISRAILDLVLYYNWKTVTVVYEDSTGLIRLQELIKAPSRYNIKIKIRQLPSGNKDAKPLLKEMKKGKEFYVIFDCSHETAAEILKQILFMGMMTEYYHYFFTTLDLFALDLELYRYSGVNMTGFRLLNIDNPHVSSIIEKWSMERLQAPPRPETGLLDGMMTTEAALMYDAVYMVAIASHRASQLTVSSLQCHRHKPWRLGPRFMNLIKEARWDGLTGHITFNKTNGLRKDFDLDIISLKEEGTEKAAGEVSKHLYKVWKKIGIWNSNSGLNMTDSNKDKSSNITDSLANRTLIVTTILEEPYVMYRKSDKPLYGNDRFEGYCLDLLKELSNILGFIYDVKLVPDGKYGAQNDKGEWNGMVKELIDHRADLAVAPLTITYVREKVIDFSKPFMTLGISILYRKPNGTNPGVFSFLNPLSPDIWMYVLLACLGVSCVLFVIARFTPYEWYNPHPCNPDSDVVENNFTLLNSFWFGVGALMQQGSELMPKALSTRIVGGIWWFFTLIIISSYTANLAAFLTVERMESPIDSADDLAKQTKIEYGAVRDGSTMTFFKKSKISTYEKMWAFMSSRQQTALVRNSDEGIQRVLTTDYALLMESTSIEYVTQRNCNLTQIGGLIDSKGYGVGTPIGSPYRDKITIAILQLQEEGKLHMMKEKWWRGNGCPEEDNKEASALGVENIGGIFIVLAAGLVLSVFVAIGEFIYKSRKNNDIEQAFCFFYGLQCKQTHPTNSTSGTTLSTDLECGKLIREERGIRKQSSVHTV

Row | Compound | melting point | IC50 [1] | IC50 [2]
1 | O=C(Nc1ccc(O)cc1)Nc1cc(Cl)ccc1C(=O)O | 212 to 214 °C (dec.) |  | 
2 | O=C(Nc1ccccc1O)Nc1cc(Cl)ccc1C(=O)O | 179 to 180 °C (dec.) |  | 
3 | Cc1cc(S(=O)(=O)O)c(NC(=O)Nc2cccc(Br)c2)cc1Cl [Compound 1a, 2-[3-(3-Bromo-phenyl)-ureido]-4-chloro-5-methyl-benzenesulfonic acid] |  | 32 µM | 1.1 µM
4 | O=C(Nc1ccc2ccccc2c1)Nc1cc(Cl)ccc1C(=O)O [Compound E2, 4-Chloro-2-(3-naphtalen-2-yl-ureido)-benzoic acid] | 176 to 179 °C | 70 µM | 1.2 µM
5 | COc1ccc(NC(=O)Nc2cc(Cl)ccc2C(=O)O)cc1 | 194 to 195 °C |  | 
6 | O=C(Nc1cccc(-c2ccccc2)c1)Nc1cc(Cl)ccc1C(=O)O | 181 to 183 °C |  | 
7 | O=C(Nc1ccc(I)cc1)Nc1cc(Cl)ccc1C(=O)O | 209 to 210 °C (dec.) |  | 
8 | O=C(Nc1ccc2c(c1)OCO2)Nc1cc(Cl)ccc1C(=O)O | 183 to 185 °C |  | 
9 | O=C(Nc1cccs1)Nc1cc(Cl)ccc1C(=O)O | 199 to 200 °C |  | 
10 | 2-[3-(3-Bromo-phenyl)-ureido]-4-chloro-benzenesulfonic acid, triethylammonium salt [Compound A1] |  | 10 µM | 1.5 µM
11 | O=C(Nc1cccc(Cl)c1)Nc1cc(Cl)ccc1C(=O)O [Compound C14, 4-Chloro-2-[3-(3-chloro-phenyl)-ureido]-benzoic acid] | 207 to 209 °C | 37 µM | 1.3 µM
12 | O=C(Nc1cccc(C(F)(F)F)c1)Nc1cc(Cl)ccc1-c1noc(=O)[nH]1 | 246 to 248 °C (dec.) |  | 
13 | O=C(Nc1ccccc1Br)Nc1cc(Cl)ccc1C(=O)O | 195 to 197 °C |  | 
14 | O=C(Nc1ccccc1)Nc1cc(Cl)ccc1C(=O)O | 186 to 188 °C |  | 

Continued, in another order:

Row | melting point | Compound | IC50 [1] | IC50 [2]
15 | 173 to 175 °C | O=C(Nc1cc(Cl)ccc1C(=O)O)Nc1ccccc1C(F)(F)F |  | 
16 | 277 to 279 °C (dec.) | O=C(Nc1cc2ccccc2[nH]1)Nc1cc(Cl)ccc1S(=O)(=O)O |  | 
17 | > 300 °C | Cc1cc(S(=O)(=O)O)c(NC(=O)Nc2ccc3ccccc3c2)cc1Cl |  | 
18 | 167 to 169 °C (dec.) | O=C(Nc1ccc2ccccc2c1)Nc1cc(Cl)ccc1-c1nnn[nH]1 |  | 
19 | 284 to 286 °C (dec.) | Cc1cc(S(=O)(=O)O)c(NC(=O)Nc2cc3ccccc3[nH]2)cc1Cl |  | 
20 | 194 to 195 °C | O=C(Nc1ccc(F)cc1)Nc1cc(Cl)ccc1C(=O)O |  | 
21 | 208 to 209 °C | O=C(Nc1cc(Cl)ccc1C(=O)O)Nc1ccccc1-c1ccccc1 |  | 
22 | 179 to 182 °C | O=C(Nc1cccc(C(F)(F)F)c1)Nc1cc(Cl)ccc1C(=O)O |  | 
23 | 181 to 183 °C | COc1ccccc1NC(=O)Nc1cc(Cl)ccc1C(=O)O |  | 
24 | 260 to 263 °C (dec.) | O=C(Nc1ccc2c(c1)-c1ccccc1C2=O)Nc1cc(Cl)ccc1C(=O)O |  | 
25 | 192 to 193 °C | O=C(Nc1cccc(I)c1)Nc1cc(Cl)ccc1C(=O)O |  | 
26 | 222 to 224 °C | O=C(Nc1ccccn1)Nc1cc(Cl)ccc1C(=O)O |  | 
27 | 210 to 211 °C (dec.) | O=C(Nc1cccc(Br)c1)Nc1cc(Cl)ccc1-c1noc(=O)[nH]1 |  | 
28 | 205 to 207 °C | O=C(Nc1ccc(Cl)cc1)Nc1cc(Cl)ccc1C(=O)O |  | 
29 | 193 to 194 °C | O=C(Nc1ccc(-c2ccccc2)cc1)Nc1cc(Cl)ccc1C(=O)O |  | 
30 | 209 to 211 °C | O=C(Nc1cccc(O)c1)Nc1cc(Cl)ccc1C(=O)O |  | 
